Measurements taken from US20250353864A1, “INDAZOLE CONTAINING MACROCYCLES AND THEIR USE” (BLOSSOMHILL THERAPEUTICS, INC., priority 2022, published 2025).

How the values were obtained:
Format in all cases: biochemical
[1] = biological target: EGFR L858R/T790M/C797S mutant (Homo sapiens (Human), UniProt P00533, C797S/L858R/T790M); experiment: HotSpot radiometric kinase assay, EGFR L858R/T790M/C797S mutant; details: 10 μM ATP
How it was run: (§1)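 Radiometric filter-binding read-out: incorporated 33P was retained on P81 ion-exchange paper after washing away unbound phosphate. Reactions ran 120 min at room temperature with 10 μM final ATP, following ~20 min compound preincubation in Hepes pH 7.5 buffer containing 1% DMSO. IC50 from fitted curves.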

[2] = biological target: EGFR Δ746-750/C797S mutant (Homo sapiens (Human), UniProt P00533, C797S/DEL746-750); experiment: HotSpot radiometric kinase assay, EGFR Δ746-750/C797S mutant; details: 10 μM ATP
How it was run: as §1

CLK1 = CLK1 (Homo sapiens (Human), UniProt P49759); experiment: Inhibition of CLK1 kinase activity evaluated at Nanosyn (ADP-Glo); details: ADP-Glo luminescence
How it was run: (§2)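 ADP-Glo luminescence (40 min depletion, 10 min detection) quantifies ADP from ATP-initiated phosphorylation of substrate by each CLK isoform in HEPES pH 7.5 buffer, 1% DMSO, assay-specific incubation. %-inhibition calculated against uninhibited and enzyme-free controls.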

EGFR (D770_N771insNPG) = EGFR (D770_N771insNPG) (Homo sapiens (Human), UniProt P00533, INS770NPG); experiment: HotSpot radiometric kinase assay, EGFR (D770_N771insNPG); details: 10 μM ATP, read-out: EGFR (Δ770_N771insNPG) IC50
How it was run: as §1

CLK4 = CLK4 (Homo sapiens (Human), UniProt Q9HAZ1); experiment: Inhibition of CLK4 kinase activity evaluated at Nanosyn (ADP-Glo); details: ADP-Glo luminescence
How it was run: as §2

EGFR Δ746-750 mutant = EGFR Δ746-750 mutant (Homo sapiens (Human), UniProt P00533, DEL746-750); experiment: HotSpot radiometric kinase assay, EGFR Δ746-750 mutant; details: 10 μM ATP
How it was run: as §1

EGFR L858R mutant = EGFR L858R mutant (Homo sapiens (Human), UniProt P00533, L858R); experiment: HotSpot radiometric kinase assay, EGFR L858R mutant; details: 10 μM ATP
How it was run: as §1

EGFR WT = EGFR WT (Homo sapiens (Human), UniProt P00533); experiment: HotSpot radiometric kinase assay (Reaction Biology), EGFR WT; details: 10 μM ATP
How it was run: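 10 μM ATP (33P-labelled, final); 120 min RT; P81 filter capture, 0.75% phosphoric acid washes. Cpd preincubated ~20 min with enzyme/substrate, 20 mM Hepes pH 7.5, 10 mM MgCl2, 1% DMSO. IC50 by curve fit.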

EGFR L858R/T790M mutant = EGFR L858R/T790M mutant (Homo sapiens (Human), UniProt P00533, L858R/T790M); experiment: HotSpot radiometric kinase assay, EGFR L858R/T790M mutant; details: 10 μM ATP
How it was run: as §1

CLK2 = CLK2 (Homo sapiens (Human), UniProt P49760); experiment: Inhibition of CLK2 kinase activity evaluated at Nanosyn (ADP-Glo); details: ADP-Glo luminescence
How it was run: as §2

CLK3 = CLK3 (Homo sapiens (Human), UniProt P49761); experiment: Inhibition of CLK3 kinase activity evaluated at Nanosyn (ADP-Glo); details: ADP-Glo luminescence
How it was run: as §2

Chain of EGFR WT (P00533 25-1210): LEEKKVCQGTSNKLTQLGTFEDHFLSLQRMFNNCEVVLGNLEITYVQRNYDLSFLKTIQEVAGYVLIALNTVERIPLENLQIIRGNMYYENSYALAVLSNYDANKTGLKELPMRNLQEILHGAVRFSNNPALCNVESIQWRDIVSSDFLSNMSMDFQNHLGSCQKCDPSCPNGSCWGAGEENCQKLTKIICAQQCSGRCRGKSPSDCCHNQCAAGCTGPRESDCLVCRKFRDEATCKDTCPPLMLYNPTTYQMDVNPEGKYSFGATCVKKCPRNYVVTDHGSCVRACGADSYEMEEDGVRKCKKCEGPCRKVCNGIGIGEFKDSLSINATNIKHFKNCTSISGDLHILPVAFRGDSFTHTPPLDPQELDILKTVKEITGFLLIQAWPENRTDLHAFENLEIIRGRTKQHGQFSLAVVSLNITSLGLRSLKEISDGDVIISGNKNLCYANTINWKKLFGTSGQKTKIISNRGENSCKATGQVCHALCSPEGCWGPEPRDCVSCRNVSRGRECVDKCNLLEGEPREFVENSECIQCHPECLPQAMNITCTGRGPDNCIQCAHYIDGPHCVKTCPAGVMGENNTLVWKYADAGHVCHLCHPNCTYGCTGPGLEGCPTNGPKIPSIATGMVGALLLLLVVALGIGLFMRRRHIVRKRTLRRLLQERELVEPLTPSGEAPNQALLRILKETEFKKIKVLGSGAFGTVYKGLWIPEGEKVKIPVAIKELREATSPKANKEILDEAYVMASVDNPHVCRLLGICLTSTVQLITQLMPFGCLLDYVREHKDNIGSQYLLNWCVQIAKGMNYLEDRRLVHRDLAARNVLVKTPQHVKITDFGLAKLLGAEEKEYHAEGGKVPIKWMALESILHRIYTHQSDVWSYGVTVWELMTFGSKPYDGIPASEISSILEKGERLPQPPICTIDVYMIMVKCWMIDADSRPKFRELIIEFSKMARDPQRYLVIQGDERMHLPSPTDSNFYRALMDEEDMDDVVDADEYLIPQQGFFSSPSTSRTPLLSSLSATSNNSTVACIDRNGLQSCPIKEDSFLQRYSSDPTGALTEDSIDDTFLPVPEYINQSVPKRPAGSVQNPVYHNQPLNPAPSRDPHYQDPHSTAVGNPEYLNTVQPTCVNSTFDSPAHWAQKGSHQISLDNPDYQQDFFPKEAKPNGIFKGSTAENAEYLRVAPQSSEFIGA
Chain of EGFR L858R/T790M mutant (P00533 25-1210 T790M/L858R): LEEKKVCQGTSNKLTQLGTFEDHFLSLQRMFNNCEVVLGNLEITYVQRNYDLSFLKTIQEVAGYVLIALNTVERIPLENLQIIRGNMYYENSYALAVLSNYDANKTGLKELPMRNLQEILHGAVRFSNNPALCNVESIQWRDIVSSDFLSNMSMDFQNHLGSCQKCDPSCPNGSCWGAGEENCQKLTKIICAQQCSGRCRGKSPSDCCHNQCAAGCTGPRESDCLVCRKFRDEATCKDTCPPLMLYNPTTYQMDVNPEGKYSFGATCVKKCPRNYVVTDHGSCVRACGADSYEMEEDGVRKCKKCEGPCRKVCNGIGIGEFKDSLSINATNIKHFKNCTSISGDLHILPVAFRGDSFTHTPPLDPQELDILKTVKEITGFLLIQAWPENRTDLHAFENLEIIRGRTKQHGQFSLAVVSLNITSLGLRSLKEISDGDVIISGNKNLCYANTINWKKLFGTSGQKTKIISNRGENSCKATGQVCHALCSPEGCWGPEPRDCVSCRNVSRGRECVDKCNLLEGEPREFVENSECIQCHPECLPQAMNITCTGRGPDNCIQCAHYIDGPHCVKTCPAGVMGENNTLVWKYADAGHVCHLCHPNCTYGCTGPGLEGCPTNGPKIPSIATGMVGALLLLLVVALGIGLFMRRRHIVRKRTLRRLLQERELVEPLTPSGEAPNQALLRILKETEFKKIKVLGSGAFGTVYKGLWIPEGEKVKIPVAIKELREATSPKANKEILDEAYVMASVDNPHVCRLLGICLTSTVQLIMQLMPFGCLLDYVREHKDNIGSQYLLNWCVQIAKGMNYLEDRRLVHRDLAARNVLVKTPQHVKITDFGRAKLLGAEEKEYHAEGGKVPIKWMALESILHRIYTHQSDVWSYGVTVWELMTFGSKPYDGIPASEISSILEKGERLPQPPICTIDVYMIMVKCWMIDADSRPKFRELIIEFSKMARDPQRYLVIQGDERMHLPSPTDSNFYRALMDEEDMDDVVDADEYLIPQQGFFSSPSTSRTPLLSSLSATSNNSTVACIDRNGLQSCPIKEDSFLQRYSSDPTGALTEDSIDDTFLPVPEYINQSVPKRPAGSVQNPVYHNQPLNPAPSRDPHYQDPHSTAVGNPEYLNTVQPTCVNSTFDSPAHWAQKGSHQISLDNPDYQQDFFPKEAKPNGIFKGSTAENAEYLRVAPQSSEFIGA
Chain of CLK3 (P49761 whole entry): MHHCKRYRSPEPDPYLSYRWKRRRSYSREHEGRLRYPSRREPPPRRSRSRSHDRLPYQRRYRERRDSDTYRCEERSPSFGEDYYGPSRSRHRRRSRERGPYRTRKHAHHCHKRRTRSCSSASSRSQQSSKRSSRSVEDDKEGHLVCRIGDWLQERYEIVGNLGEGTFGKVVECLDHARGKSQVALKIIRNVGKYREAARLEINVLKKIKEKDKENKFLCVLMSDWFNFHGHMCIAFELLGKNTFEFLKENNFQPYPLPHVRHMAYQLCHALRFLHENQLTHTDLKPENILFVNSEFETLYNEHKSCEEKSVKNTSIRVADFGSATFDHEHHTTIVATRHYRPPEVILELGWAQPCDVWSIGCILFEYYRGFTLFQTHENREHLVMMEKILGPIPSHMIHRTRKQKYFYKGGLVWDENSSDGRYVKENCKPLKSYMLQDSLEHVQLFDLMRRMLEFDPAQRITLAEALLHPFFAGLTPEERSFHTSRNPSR
Chain of EGFR Δ746-750/C797S mutant (P00533 other isoform, or with tags, fused parts or gaps C797S/del 1-668/del 746-750 limits assumed): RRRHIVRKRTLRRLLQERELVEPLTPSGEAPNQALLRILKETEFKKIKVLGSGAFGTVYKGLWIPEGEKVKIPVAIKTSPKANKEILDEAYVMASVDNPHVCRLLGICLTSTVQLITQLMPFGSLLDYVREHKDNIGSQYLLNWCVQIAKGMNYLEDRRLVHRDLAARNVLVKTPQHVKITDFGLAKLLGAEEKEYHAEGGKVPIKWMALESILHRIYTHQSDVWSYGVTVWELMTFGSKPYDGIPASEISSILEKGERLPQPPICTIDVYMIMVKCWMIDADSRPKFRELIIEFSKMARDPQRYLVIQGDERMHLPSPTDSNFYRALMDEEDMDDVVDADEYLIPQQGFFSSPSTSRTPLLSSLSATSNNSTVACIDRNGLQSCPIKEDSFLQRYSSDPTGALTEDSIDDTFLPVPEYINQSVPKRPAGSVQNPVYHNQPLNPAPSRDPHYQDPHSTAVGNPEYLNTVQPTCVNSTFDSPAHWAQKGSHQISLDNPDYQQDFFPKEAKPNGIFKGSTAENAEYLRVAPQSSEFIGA
Chain of EGFR L858R mutant (P00533 25-1210 L858R): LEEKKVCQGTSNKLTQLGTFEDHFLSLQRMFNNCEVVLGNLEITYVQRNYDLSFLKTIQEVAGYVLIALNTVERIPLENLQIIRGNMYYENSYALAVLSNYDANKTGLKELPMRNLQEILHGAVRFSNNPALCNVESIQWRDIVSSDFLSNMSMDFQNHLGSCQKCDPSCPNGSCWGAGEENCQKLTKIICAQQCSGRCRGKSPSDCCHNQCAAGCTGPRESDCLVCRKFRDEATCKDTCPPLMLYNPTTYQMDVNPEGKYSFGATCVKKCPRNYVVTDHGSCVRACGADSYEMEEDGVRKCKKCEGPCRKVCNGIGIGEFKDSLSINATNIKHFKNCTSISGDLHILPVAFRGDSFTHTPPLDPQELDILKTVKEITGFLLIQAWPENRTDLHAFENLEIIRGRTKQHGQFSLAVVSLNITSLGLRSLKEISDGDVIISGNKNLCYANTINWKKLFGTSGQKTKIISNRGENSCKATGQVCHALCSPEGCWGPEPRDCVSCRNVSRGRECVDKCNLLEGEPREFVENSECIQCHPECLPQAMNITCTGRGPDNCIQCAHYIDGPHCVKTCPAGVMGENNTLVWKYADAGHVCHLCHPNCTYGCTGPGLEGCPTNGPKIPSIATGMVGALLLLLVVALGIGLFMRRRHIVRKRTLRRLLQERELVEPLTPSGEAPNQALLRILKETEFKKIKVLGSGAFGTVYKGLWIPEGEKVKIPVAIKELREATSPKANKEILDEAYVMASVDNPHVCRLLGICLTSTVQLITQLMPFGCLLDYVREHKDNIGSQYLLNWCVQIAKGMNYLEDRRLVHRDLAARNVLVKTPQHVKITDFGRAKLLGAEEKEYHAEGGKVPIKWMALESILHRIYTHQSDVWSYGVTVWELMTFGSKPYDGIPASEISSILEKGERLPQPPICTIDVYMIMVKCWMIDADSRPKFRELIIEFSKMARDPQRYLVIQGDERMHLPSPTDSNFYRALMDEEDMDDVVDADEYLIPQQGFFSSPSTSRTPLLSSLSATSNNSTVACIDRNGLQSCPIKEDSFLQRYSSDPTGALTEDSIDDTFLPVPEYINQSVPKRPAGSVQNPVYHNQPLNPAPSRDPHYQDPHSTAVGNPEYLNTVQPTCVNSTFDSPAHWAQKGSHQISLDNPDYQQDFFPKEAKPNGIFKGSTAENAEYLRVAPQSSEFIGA
Chain of CLK4 (Q9HAZ1 whole entry): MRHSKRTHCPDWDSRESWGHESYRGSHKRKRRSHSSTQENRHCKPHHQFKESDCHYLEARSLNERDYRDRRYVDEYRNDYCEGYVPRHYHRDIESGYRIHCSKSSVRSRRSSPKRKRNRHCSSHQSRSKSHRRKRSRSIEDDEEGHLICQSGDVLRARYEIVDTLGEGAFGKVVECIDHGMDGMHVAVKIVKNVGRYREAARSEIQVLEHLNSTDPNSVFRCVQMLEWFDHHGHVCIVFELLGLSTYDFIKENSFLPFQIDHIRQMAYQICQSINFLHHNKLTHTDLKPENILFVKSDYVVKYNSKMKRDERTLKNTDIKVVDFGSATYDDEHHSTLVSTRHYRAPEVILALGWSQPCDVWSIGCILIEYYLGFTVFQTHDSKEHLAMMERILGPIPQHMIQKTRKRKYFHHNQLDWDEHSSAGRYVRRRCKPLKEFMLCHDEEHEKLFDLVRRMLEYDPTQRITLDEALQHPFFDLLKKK

IC50 [1] [nM]	IC50 [2] [nM]	IC50 (CLK1) [nM]	IC50 (EGFR (D770_N771insNPG)) [nM]	IC50 (CLK4) [nM]	IC50 (EGFR Δ746-750 mutant) [nM]	IC50 (EGFR L858R mutant) [nM]	IC50 (EGFR WT) [nM]	IC50 (EGFR L858R/T790M mutant) [nM]	IC50 (CLK2) [nM]	IC50 (CLK3) [nM]	SMILES
0.2	5.07	5.75	431	5.07	21.1	82.6	296	0.42	6.11	1	CC(C)Oc1nn(CCO)c2c1/C=C/c1n[nH]c3ccc(cc13)-c1cnn(C)c1OC[C@H](C)N(C1CC1)C2 [Example 213, 2-{(11S,17E)-12-cyclopropyl-8,11-dimethyl-16-[(propan-2-yl)oxy]-2,8,10,11,12,13-hexahydro-14H-3,5-ethenotripyrazolo[3,4-f:3′,4′-j:4″,3″- n][1,4]oxazacyclopentadecin-14-yl}ethan-1-ol]
> 1000	2870	270	> 1000	397	> 1000	400	> 1000	> 1000	114	1	C[C@H]1CN(C)Cc2c(c(OCC(F)(F)F)nn2CCO)/C=C/c2n[nH]c3cc(F)c(cc23)-c2cnn(C)c2O1 [Example 211, 2-[(10S,17E)-19-fluoro-8,10,12-trimethyl-16-(2,2,2-trifluoroethoxy)-2,8,10,11,12,13-hexahydro-14H-3,5-ethenotripyrazolo[3,4-f:3′,4′-j:4″,3″- n][1,4]oxazacyclopentadecin-14-yl]ethan-1-ol]
1.06	11.5	0.66	68.9	1.03	5.11	12	26.8	0.8	1.73	397	CCOc1nn(C)c2c1/C=C/c1n[nH]c3ccc(cc13)-c1cnn(C)c1O[C@@H]1CCN(C2)C1 [Example 236, (10R,18E)-17-ethoxy-8,15-dimethyl-2,8,11,12,14,15-hexahydro-10H-3,5-etheno-10,13-methanotripyrazolo[3,4-g:3′,4′-k:4″,3″- o][1,5]oxazacyclohexadecine]
27.5	475	2.76	575	4.31	398	515	1440	23.1	8.84	1	CC(C)Oc1nn(CCO)c2c1/C=C/c1n[nH]c3ccc(cc13)-c1cnn(C)c1O[C@@H](C)C(=O)N(C)C2 [Example 220, (10S,17E)-14-(2-hydroxyethyl)-8,10,12-trimethyl-16-[(propan-2-yl)oxy]-2,12,13,14-tetrahydro-8H-3,5-ethenotripyrazolo[3,4-f:3′,4′-j:4″,3″- n][1,4]oxazacyclopentadecin-11(10H)-one]
1.76	20.2	0.39	95.3	0.59	33.4	16.7	220	3.23	0.75	1000	CSCn1ncc2c1O[C@@H](C)CN(C(C)C)Cc1c(c(C)nn1C)/C=C/c1n[nH]c3ccc-2cc13 [Example 164, (10S,17E)-10,14,16-trimethyl-8-[(methylsulfanyl)methyl]-12-(propan-2-yl)-2,10,11,12,13,14-hexahydro-8H-3,5-ethenotripyrazolo[3,4-f:3′,4′-j:4″,3″-n][1,4]oxazacyclopentadecine]
1.05	5.92	31.8	77.3	21	10.2	36.6	90.1	2.42	45.4	1000	CC(C)Oc1nn(CCO)c2c1/C=C/c1n[nH]c3ccc(cc13)-c1cnn(C)c1O[C@H](C)CN(C(C)C)C2 [Example 193, 2-{(10R,17E)-8,10-dimethyl-12-(propan-2-yl)-16-[(propan-2-yl)oxy]-2,8,10,11,12,13-hexahydro-14H-3,5-ethenotripyrazolo[3,4-f:3′,4′-j:4″,3″-n][1,4]oxazacyclopentadecin-14-yl}ethan-1-ol]
0.33	7.84	0.48	74.7	1.35	8.88	6.88	25.9	0.47	0.3	311	C[C@H]1CN(C)Cc2c(c(OC3CC(S(C)(=O)=O)C3)nn2C)/C=C/c2n[nH]c3ccc(cc23)-c2cnn(C)c2O1 (stereo partly drawn) [Example 187, (10S,17E)-16-{I3-(methanesulfonyl)cyclobutyl|oxy}-8,10,12,14-tetramethyl-2,10,11,12,13,14-hexahydro-8H-3,5-ethenotripyrazolo[3,4-f:3′,4′-j:4″,3″-n][1,4]oxazacyclopentadecine]
0.9	33.5	0.11	523	0.25	30.5	47.4	238	1.4	0.07	784	C[C@H]1CN(C)Cc2c(c(OCC(F)(F)F)nn2C)/C=C/c2n[nH]c3ccc(cc23)-c2cnn(C)c2O1 [Example 162, (10S,17E)-8,10,12,14-tetramethyl-16-(2,2,2-trifluoroethoxy)-2,10,11,12,13,14-hexahydro-8H-3,5-ethenotripyrazolo[3,4-f:3′,4′-j:4″,3″-n][1,4]oxazacyclopentadecine]
0.18	2.17	2.31	57.8	2.46	1.77	4.75	27.8	0.31	3.17	306	CCOc1nn(CC(C)(C)O)c2c1/C=C/c1n[nH]c3ccc(cc13)-c1cnn(C)c1O[C@@H](C)CN(CC)C2 [Example 222, 1-[(10S,17E)-16-ethoxy-12-ethyl-8,10-dimethyl-2,8,10,11,12,13-hexahydro-14H-3,5-ethenotripyrazolo[3,4-f:3′,4′-j:4″,3″-n][1,4]oxazacyclopentadecin-14-yl]-2-methylpropan-2-ol]
4.42	3.18	0.75	39.5	1.33	8.71	5.14	23.3	1.71	1.36	386	CC(C)Oc1nn(CCO)c2c1/C=C/c1n[nH]c3ccc(cc13)-c1cnn(C3CC3)c1O[C@@H](C)CN(C)C2 [Example 246, 2-{(10S,17E)-8-cyclopropyl-10,12-dimethyl-16-[(propan-2-yl)oxy]-2,8,10,11,12,13-hexahydro-14H-3,5-ethenotripyrazolo[3,4-f:3′,4′-j:4″,3″-n][1,4]oxazacyclopentadecin-14-yl}ethan-1-ol]
1.04	3.62	0.42	64.9	0.4	1.77	4.34	19.3	0.88	0.13	63.6	CCOc1nn(C)c2c1/C=C/c1n[nH]c3ccc(cc13)-c1cnn(C)c1O[C@@H](C)CN(C(C)C)C2 [Example 156, (10S,17E)-16-ethoxy-8,10,14-trimethyl-12-(propan-2-yl)-2,10,11,12,13,14-hexahydro-8H-3,5-ethenotripyrazolo[3,4-f:3′,4′-j:4″,3″-n][1,4]oxazacyclopentadecine]
